The source of these data is EP0609032A1, “Aromatic imine compounds, pharmaceutical composition thereof, useful as protein synthesis inhibitors” (NORSK HYDRO A/S, priority 1993, dated 1994).

Structures are written as SMILES. Entries after “also recorded” stand apart in the source; their conditions may differ.

Assay type in all cases: cell-based
In data set [1] the test system is human pancreatic carcinoma cell line PANC-1. Kind of data set: Rate of protein synthesis and cell inactivation ([14C]-radioactivity) in PANC-1 cells. The settings on record: for cell inactivating effect at concentrations (decline in [¹⁴C]-radioactivity): decrease in [14C]-radioactivity is a sign of cell death. As to the method: PANC-1 cells were purchased from the American Type Culture Collection (ATCC) in 1990. These cells were derived from a human adenocarcinoma of ductal origin (Lieber et al, Int. J. Cancer 15, (1975) 741-747).
(§1) The cells are routinely grown as monolayers in tissue culture flasks. The cells were kept in continuous exponential growth by frequent reculturing, i.e. every second or third day.
(§2) During reculturing as well as during experiments the cells were kept in a walk-in incubator at 37°C.
(§3) The rate of protein synthesis was calculated as described previously (Rønning et al., J. Cell Physiol., 107: 47-57, (1981)). Briefly, cellular protein was labeled to saturation during a 2-day preincubation with [¹⁴C]-valine of constant specific radioactivity (0.5 Ci/mol) prior to the experiment. This was achieved by using a high concentration of valine so that the dilution of [¹⁴C]- valine by intracellular valine and by proteolytically generated valine will be negligible (Rønning et al., Exp. Cell Res., 123: 63-72, (1979)), thus keeping the specific radioactivity at a constant level. The rate of protein synthesis was calculated from the incorporation of [³H]-valine of constant specific activity. The incorporated measurements were related to the total of [¹⁴C]-radioactivity in protein at the beginning of the respective measurement periods and expressed as the percentage per hr (Rønning et al., J. Cell. Physiol., 107: 47-57, (1981)).
In Figures 6a) and b) the human pancreatic carcinoma cell line PANC-1, cultivated in the medium MEM (with new born calf serum), was used .
In Figures 7a) and b) the human pancreatic carcinoma cell line PANC-1, cultivated in the medium E2a (with human and horse serum), was used .

Data set [2] relates to human NHIK 3025/MEM cervix carcinoma cells. Nature of the data set: Rate of protein synthesis ([3H]-valine incorporation) in NHIK 3025 cells. The settings on record: NHIK 3025/MEM cells, 1 hour treatment with [3H]-valine, compared to prior art compound 15.
Source text: Human cells of the established line NHIK 3025, originating from a cervical carcinoma in situ (Nordbye, K. and Oftebro, R., Exp. Cell Res., 58: 458, (1969)), (Oftebro, R. and Nordbye, K., Exp. Cell Res., 58: 459-460, (1969)) were cultivated in medium E2a (Puck et al., J. Exp. Med., 106: 145-165, (1957)) supplemented with 20% human (prepared at the laboratory) and 10% horse serum (Grand Island Biological Co.).
as §1, §2, §3
In Figure 1 the rate of protein synthesis (as % of control rate) is shown in relation to the concentration of imine used in the treatment of human NHIK 3025/MEM cervix carcinoma cells cultivated in vitro. The treatment period was for 1 hour during which the cell culture medium contained [³H]-valine in addition to the test compound. […]

Data set [3] deals with murine B16 melanoma cells. Kind of data set: Rate of protein synthesis in B16 melanoma cells. The settings on record: Figure 3, compared to prior art compound 15. The method, then: as §3
In Figure 3, the effect of two imine compounds, 3 and 7, according to the invention and the effect of the prior art compound 15 on the protein synthesis of murine B16 melanoma cells is shown.

The subject of data set [4] is non-malignant cell line V79 (Chinese hamster lung cells). Kind of data set: Rate of protein synthesis in V79 cells. Particulars: Figure 4.
Source text: V79 379-A cells were provided by Dr. Laszlo Révész (Karolinska Institutet, Stockholm) in 1976 and have since been cultivated in MEM medium (Hank's salts) supplemented with 15% newborn bovine serum. These cells are a clone of the line V79, isolated from Chinese hamster normal lung tissue and established in culture by Ford and Yerganian (see J. Natl. Cancer Inst. 21, (1958) 393-425).
as §1, §2, §3
In Figure 4 the effect of two preferred imines according to the invention, compounds 3 and 7 , on the rate of protein synthesis in the non-malignant cell line V79 (Chinese hamster lung cells).

For data set [5], the system named is 3T3 cells (derived from mouse embryo). Nature of the data set: Rate of protein synthesis in 3T3 cells. The settings on record: Figure 5.
Source text: Balb 3T3-A cells were isolated by Aaronsen and Todaro (J. Cell Physiol. 72, (1968)) 41-148) and were provided by Dr. T.Ege (Karolinska Institutet, Stockholm) in 1980 and have since been cultivated in MEM medium (Hank's salts) supplemented with 15% newborn bovine serum.
as §1, §2, §3
In Figure 5 the effect of compounds 3 and 7 on the rate of the protein synthesis of 3T3 cells (derived from mouse embryo) is shown.

On to `[2H]C(=NCCCN(C)C)c1ccccc1` [Compound 14, 1-(Benzylidene-d1-Amino)-3-(Dimethyl-amino)-Propane], for which the “cell inactivating effect at concentrations (decline in [¹⁴C]-radioactivity)” value in data set [1] (Figure 6b, PANC-1 in medium MEM) is “above 2 mM”; in data set [1] (Figure 7b, PANC-1 in medium E2a) it was “above 2 mM”.
With `O=[N+]([O-])c1cccc(C=NCCCCO)c1` [Compound 7, 4-(3-Nitrobenzylidene-Amino)-Butan-1-ol], the “rate of protein synthesis (as % of control rate)” value (“rate … (as % of control rate)” for short) in data set [2] (Figure 2) is on record as “inhibited to a greater degree; also recorded: strongest inhibition on protein synthesis”. The “effect on the protein synthesis” value in data set [3] was “much stronger protein synthesis inhibiting effect”. The “effect on the rate of protein synthesis” value in data set [4] is “significantly inhibit protein synthesis; also recorded: slightly more effective than compound 3”. For the same molecule, the “effect on the rate of the protein synthesis” value in data set [5] was “strong protein synthesis inhibition”.
In the case of `COC(=O)c1ccc(C=NCCCCCCCCCCC(=O)O)cc1` [Compound 4, 11-(4-Carbomethoxy-benzylidene-Amino) -Undecanoic Acid], the “rate … (as % of control rate)” value in data set [2] (Figure 1) is listed as “inhibited to a greater degree; also recorded: strongest inhibition on protein synthesis”.
Consider `O=C(O)CCCCCN=Cc1cccc([N+](=O)[O-])c1` [Compound 3, 6-(3-Nitrobenzylidene-Amino)-Hexanoic Acid], for which the “rate … (as % of control rate)” value in data set [2] (Figure 1) is given as “inhibited to a greater degree; also recorded: strongest inhibition on protein synthesis”. For the same molecule, the “effect on the protein synthesis” value in data set [3] is on record as “much stronger protein synthesis inhibiting effect”. Besides, the “effect on the rate of protein synthesis” value in data set [4] was “significantly inhibit protein synthesis”. Further, the “effect on the rate of the protein synthesis” value in data set [5] is reported as “strong protein synthesis inhibition”.
On to `[2H]C1(c2ccccc2)OC[C@@H]([C@H]2OC(=O)C(O)=C2O)O1` (stereo partly drawn) [Compound 15, Sodium 5,6-0-Benzylidene-d1-L-Ascorbate, reference compound], for which the “effect on the rate of protein synthesis” value in data set [4] is “little or no inhibition”. Besides, the “effect on the rate of the protein synthesis” value in data set [5] is listed as “little effect”. Moreover, the “protein synthesis inhibiting activity” value is “little protein synthesis inhibiting activity” in data set [1] (Figures 6a/6b, PANC-1 in medium MEM (with new born calf serum)); “little protein synthesis inhibiting activity” in data set [1] (Figures 7a/7b, PANC-1 in medium E2a (with human and horse serum)).
